Values of other authors in patent publication US20080214876A1, “Process for Preparation of Pharmaceutically Pure Anhydrous Calcipotriol” (INSTYTUT FARMACEUTYCZNY, priority 2004, published 2008).

Legend:
epidermal keratinocytes = conditions: literature: Castelijins et al., Acta Derm. Venereol. 79, 111 (1999)
calcium metabolism = conditions: rats; relative to calcitriol; Binderup, Bramm, Biochem. Pharmacol. 37, 889 (1988)
[1] = pharmaceutical formulations

Row | weaker effect on calcium metabolism compared to calcitriol (calcium metabolism) | stability in some solutions [1] | SMILES | activity in inhibiting undesirable proliferation of epidermal keratinocytes (epidermal keratinocytes)
1 | 100-200 fold | poor stability | C=C1/C(=C\C=C2/CCC[C@]3(C)[C@@H]([C@H](C)/C=C/[C@@H](O)C4CC4)CC[C@@H]23)C[C@@H](O)C[C@@H]1O [calcipotriol, (1α,3β3,5Z,7E,22E,24S)-24-cyclopropyl-9,10-secochola-5,7,10(19),22-tetraene-1,3,24-triol] | strong activity
2 |  |  | C=C1/C(=C\C=C2/CCC[C@]3(C)[C@@H]([C@H](C)CC[C@@H](O)C(C)C)CC[C@@H]23)C[C@@H](O)C[C@@H]1O [tacalcitol, 1α,24R-dihydroxycholecalciferol] | strong activity
3 |  |  | C=C1/C(=C\C=C2/CCC[C@]3(C)[C@@H]([C@H](C)CCCC(C)(C)O)CC[C@@H]23)C[C@@H](O)C[C@@H]1O [calcitriol, 1,25-dihydroxycholecalciferol] | strong activity
